{"source": "patent US6355799B1", "about": "“Substituted benzene compounds, process for their preparation, and herbicidal and defoliant compositions containing them” (ISK Americas Incorporated, priority 1997, dated 2002)", "assay_type_in_all_cases": "in vivo", "key": {"[1]": {"test_system": "johnsongrass (Sorghum halepense, SORHA)", "assay": "Post-emerge test, greenhouse herbicide activity screening", "conditions": "post-emerge, 14 days after application, rating scale 0-100", "procedure,_shortened": "(§1)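 Fourteen days after spraying, crop and weed injury was graded visually from 0, no effect, to 100, every plant dead. Test substances were dissolved in acetone and applied at 15–1000 g ai/ha with a flat-fan nozzle. Application was either pre-emergence, one day after sowing, or post-emergence at the 2–3 leaf stage.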"}, "[2]": {"test_system": "lambsquarters (Chenopodium album, CHEAL)", "assay": "Post-emerge test, greenhouse herbicide activity screening", "conditions": "post-emerge, 14 days after application, rating scale 0-100", "procedure,_shortened": "as §1"}, "[3]": {"test_system": "large crabgrass (Digitaria sanguinalis, DIGSA)", "assay": "Post-emerge test, greenhouse herbicide activity screening", "conditions": "post-emerge, 14 days after application, rating scale 0-100", "procedure,_shortened": "as §1"}, "[4]": {"test_system": "common ragweed (Ambrosia artemisizfolia L., AMBEL)", "assay": "Post-emerge test, greenhouse herbicide activity screening", "conditions": "post-emerge, 14 days after application, rating scale 0-100", "procedure,_shortened": "as §1"}, "[5]": {"test_system": "redroot pigweed (Amaranthus retroflexus, AMARE)", "assay": "Post-emerge test, greenhouse herbicide activity screening", "conditions": "post-emerge, 14 days after application", "procedure,_shortened": "as §1"}, "[6]": {"test_system": "green foxtail (Setaria viridis, SETVI)", "assay": "Post-emerge test, greenhouse herbicide activity screening", "conditions": "post-emerge, 14 days after application, rating scale 0-100", "procedure,_shortened": "as §1"}, "[7]": {"test_system": "velvetleaf (Abutilon theophrasti, ABUTH)", "assay": "Post-emerge test, greenhouse herbicide activity screening", "conditions": "post-emerge, 14 days after application, rating scale 0-100", "procedure,_shortened": "as §1"}, "[8]": {"test_system": "barnyardgrass (Echinochloa crus-galli, ECHCG)", "assay": "Post-emerge test, greenhouse herbicide activity screening", "conditions": "post-emerge, 14 days after application, rating scale 0-100", "procedure,_shortened": "as §1"}, "[9]": {"test_system": "ivyleaf morningglory (Ipomoea hederacea, IPOHE)", "assay": "Post-emerge test, greenhouse herbicide activity screening", "conditions": "post-emerge, 14 days after application, rating scale 0-100", "procedure,_shortened": "as §1"}, "[10]": {"test_system": "sicklepod (Cassia obtusifolia, CASOB)", "assay": "Post-emerge test, greenhouse herbicide activity screening", "conditions": "post-emerge, 14 days after application, rating scale 0-100", "procedure,_shortened": "as §1"}, "[11]": {"test_system": "johnsongrass (Sorghum halepense, SORHA)", "assay": "Pre-emerge test, greenhouse herbicide activity screening", "conditions": "phytotoxicity rating 0-100, 14 days after application", "procedure,_shortened": "(§2)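 Compounds in acetone were track-sprayed at 15–1000 g ai/ha: pre-emergence onto soil sown the previous day, then top-watered to incorporate and later bottom-watered; post-emergence onto 2–3 leaf plants with 0.25% v/v surfactant, bottom-watered only. Ratings on a 0–100 phytotoxicity scale were taken at day 14.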"}, "[12]": {"test_system": "lambsquarters (Chenopodium album, CHEAL)", "assay": "Pre-emerge test, greenhouse herbicide activity screening", "conditions": "phytotoxicity rating 0-100, 14 days after application", "procedure,_shortened": "as §2"}, "[13]": {"test_system": "large crabgrass (Digitaria sanguinalis, DIGSA)", "assay": "Pre-emerge test, greenhouse herbicide activity screening", "conditions": "phytotoxicity rating 0-100, 14 days after application", "procedure,_shortened": "as §2"}, "[14]": {"test_system": "common ragweed (Ambrosia artemisizfolia L., AMBEL)", "assay": "Pre-emerge test, greenhouse herbicide activity screening", "conditions": "phytotoxicity rating 0-100, 14 days after application", "procedure,_shortened": "as §2"}, "[15]": {"test_system": "green foxtail (Setaria viridis, SETVI)", "assay": "Pre-emerge test, greenhouse herbicide activity screening", "conditions": "phytotoxicity rating 0-100, 14 days after application", "procedure,_shortened": "as §2"}, "[16]": {"test_system": "velvetleaf (Abutilon theophrasti, ABUTH)", "assay": "Pre-emerge test, greenhouse herbicide activity screening", "conditions": "phytotoxicity rating 0-100, 14 days after application", "procedure,_shortened": "as §2"}, "[17]": {"test_system": "barnyardgrass (Echinochloa crus-galli, ECHCG)", "assay": "Pre-emerge test, greenhouse herbicide activity screening", "conditions": "phytotoxicity rating 0-100, 14 days after application", "procedure,_shortened": "as §2"}, "[18]": {"test_system": "ivyleaf morningglory (Ipomoea hederacea, IPOHE)", "assay": "Pre-emerge test, greenhouse herbicide activity screening", "conditions": "phytotoxicity rating 0-100, 14 days after application", "procedure,_shortened": "as §2"}, "[19]": {"test_system": "sicklepod (Cassia obtusifolia, CASOB)", "assay": "Pre-emerge test, greenhouse herbicide activity screening", "conditions": "phytotoxicity rating 0-100, 14 days after application", "procedure,_shortened": "as §2"}, "[20]": {"test_system": "field corn (Zea mays L., var. Dekalb 535, CORN)", "assay": "Pre-emerge test, crop safety", "conditions": "crop damage rating 0-100, 14 days after application", "procedure,_shortened": "(§3)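 Visual ratings on a 0-100 scale (0 no damage, 100 all plants dead) were taken at 14 days after treatment. Rates of 15-1000 g ai/ha in acetone, 187 l/ha, were sprayed onto soil one day after planting (pre-emerge) or onto 2-3 leaf plants with 0.25% v/v surfactant (post-emerge).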"}, "[21]": {"test_system": "upland rice (Oryza sp., var. Tebonnet, RICE)", "assay": "Pre-emerge test, crop safety", "conditions": "crop damage rating 0-100, 14 days after application", "procedure,_shortened": "as §3"}, "[22]": {"test_system": "redroot pigweed (Amaranthus retroflexus, AMARE)", "assay": "Pre-emerge test, greenhouse herbicide activity screening", "conditions": "phytotoxicity rating 0-100, 14 days after application", "procedure,_shortened": "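Plants grown in 10 cm pots of sandy loam mix received acetone-dissolved compounds through a moving flat-fan nozzle. Doses ranged from 15 to 1000 g ai/ha. Pre-emerge pots were seeded one day earlier, post-emerge pots 8–21 days earlier. Fourteen days on, each pot was graded 0–100 for damage.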"}, "[23]": {"test_system": "field corn (Zea mays L., var. Dekalb 535, CORN)", "assay": "Post-emerge test, crop safety", "conditions": "post-emerge, 14 days after application, rating scale 0-100", "procedure,_shortened": "(§4)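 Rating: 0–100 visual injury, 14 DAA. Application: acetone, 187 l/ha, 15–1000 g ai/ha, flat-fan track sprayer with nozzle 40–45 cm above soil or canopy. Post-emerge runs used 0.25% v/v surfactant on 2–3 leaf plants.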"}, "[24]": {"test_system": "upland rice (Oryza sp., var. Tebonnet, RICE)", "assay": "Post-emerge test, crop safety", "conditions": "post-emerge, 14 days after application, rating scale 0-100", "procedure,_shortened": "as §4"}}, "data": [{"smiles": "COC(=O)N(C(=O)OC)c1c(OC)c(Cl)cc(F)c1-n1c(=O)cc(C(F)(F)F)n(C)c1=O", "note": "[4-2]", "values": [{"measurement": "phytotoxicity rating SORHA", "setting": "[1]; 63 g ai/ha", "value": 0}, {"measurement": "phytotoxicity rating SORHA", "setting": "[1]; 250 g ai/ha", "value": 0}, {"measurement": "phytotoxicity rating CHEAL", "setting": "[2]; 63 g ai/ha", "value": 40}, {"measurement": "phytotoxicity rating CHEAL", "setting": "[2]; 250 g ai/ha", "value": 95}, {"measurement": "phytotoxicity rating DIGSA", "setting": "[3]; 63 g ai/ha", "value": 0}, {"measurement": "phytotoxicity rating DIGSA", "setting": "[3]; 250 g ai/ha", "value": 0}, {"measurement": "phytotoxicity rating AMBEL", "setting": "[4]; 63 g ai/ha", "value": 0}, {"measurement": "phytotoxicity rating AMBEL", "setting": "[4]; 250 g ai/ha", "value": 30}, {"measurement": "phytotoxicity rating AMARE", "setting": "[5]; 63 g ai/ha, rating scale 0-100 (0 no damage, 100 complete death)", "value": 50}, {"measurement": "phytotoxicity rating AMARE", "setting": "[5]; 250 g ai/ha, rating scale 0-100", "value": 85}, {"measurement": "phytotoxicity rating SETVI", "setting": "[6]; 63 g ai/ha", "value": 0}, {"measurement": "phytotoxicity rating SETVI", "setting": "[6]; 250 g ai/ha", "value": 20}, {"measurement": "phytotoxicity rating ABUTH", "setting": "[7]; 63 g ai/ha", "value": 70}, {"measurement": "phytotoxicity rating ABUTH", "setting": "[7]; 250 g ai/ha", "value": 100}, {"measurement": "phytotoxicity rating ECHCG", "setting": "[8]; 63 g ai/ha", "value": 0}, {"measurement": "phytotoxicity rating ECHCG", "setting": "[8]; 250 g ai/ha", "value": 0}, {"measurement": "phytotoxicity rating IPOHE", "setting": "[9]; 63 g ai/ha", "value": 70}, {"measurement": "phytotoxicity rating IPOHE", "setting": "[9]; 250 g ai/ha", "value": 100}, {"measurement": "phytotoxicity rating CASOB", "setting": "[10]; 63 g ai/ha", "value": 0}, {"measurement": "phytotoxicity rating CASOB", "setting": "[10]; 250 g ai/ha", "value": 40}, {"measurement": "Pre-emerge Herbicidal Activity SORHA", "setting": "[11]; 63 g ai/ha", "value": 0}, {"measurement": "Pre-emerge Herbicidal Activity SORHA", "setting": "[11]; 250 g ai/ha", "value": 70}, {"measurement": "Pre-emerge Herbicidal Activity CHEAL", "setting": "[12]; 63 g ai/ha", "value": 100}, {"measurement": "Pre-emerge Herbicidal Activity CHEAL", "setting": "[12]; 250 g ai/ha", "value": 100}, {"measurement": "Pre-emerge Herbicidal Activity DIGSA", "setting": "[13]; 63 g ai/ha", "value": 40}, {"measurement": "Pre-emerge Herbicidal Activity DIGSA", "setting": "[13]; 250 g ai/ha", "value": 90}, {"measurement": "Pre-emerge Herbicidal Activity AMBEL", "setting": "[14]; 63 g ai/ha", "value": 30}, {"measurement": "Pre-emerge Herbicidal Activity AMBEL", "setting": "[14]; 250 g ai/ha", "value": 100}, {"measurement": "Pre-emerge Herbicidal Activity SETVI", "setting": "[15]; 63 g ai/ha", "value": 70}, {"measurement": "Pre-emerge Herbicidal Activity SETVI", "setting": "[15]; 250 g ai/ha", "value": 100}, {"measurement": "Pre-emerge Herbicidal Activity ABUTH", "setting": "[16]; 63 g ai/ha", "value": 100}, {"measurement": "Pre-emerge Herbicidal Activity ABUTH", "setting": "[16]; 250 g ai/ha", "value": 100}, {"measurement": "Pre-emerge Herbicidal Activity ECHCG", "setting": "[17]; 63 g ai/ha", "value": 0}, {"measurement": "Pre-emerge Herbicidal Activity ECHCG", "setting": "[17]; 250 g ai/ha", "value": 80}, {"measurement": "Pre-emerge Herbicidal Activity IPOHE", "setting": "[18]; 63 g ai/ha", "value": 0}, {"measurement": "Pre-emerge Herbicidal Activity IPOHE", "setting": "[18]; 250 g ai/ha", "value": 100}, {"measurement": "Pre-emerge Herbicidal Activity CASOB", "setting": "[19]; 63 g ai/ha", "value": 0}, {"measurement": "Pre-emerge Herbicidal Activity CASOB", "setting": "[19]; 250 g ai/ha", "value": 80}, {"measurement": "Pre-emerge Herbicidal Activity CORN", "setting": "[20]; 63 g ai/ha", "value": 0}, {"measurement": "Pre-emerge Herbicidal Activity CORN", "setting": "[20]; 250 g ai/ha", "value": 5}, {"measurement": "Pre-emerge Herbicidal Activity RICE", "setting": "[21]; 63 g ai/ha", "value": 10}, {"measurement": "Pre-emerge Herbicidal Activity RICE", "setting": "[21]; 250 g ai/ha", "value": 20}, {"measurement": "Pre-emerge Herbicidal Activity AMARE", "setting": "[22]; 63 g ai/ha", "value": 100}, {"measurement": "Pre-emerge Herbicidal Activity AMARE", "setting": "[22]; 250 g ai/ha", "value": 100}, {"measurement": "phytotoxicity rating CORN (crop damage)", "setting": "[23]; 63 g ai/ha", "value": 0}, {"measurement": "phytotoxicity rating CORN (crop damage)", "setting": "[23]; 250 g ai/ha", "value": 10}, {"measurement": "phytotoxicity rating RICE (crop damage)", "setting": "[24]; 63 g ai/ha", "value": 0}, {"measurement": "phytotoxicity rating RICE (crop damage)", "setting": "[24]; 250 g ai/ha", "value": 30}]}]}
